Results reported in patent publication US5206237A, “Benzodiazepine analogs” (Merck & Co., Inc., priority 1991, dated 1993).

What was measured:
[1] = rat, brain synaptosomal fraction; cited from earlier work
[2] = test system: CCK-A receptors; details: in words; cited from earlier work
[3] = test system: CCK-B receptors; details: in words; cited from earlier work
[4] = biological target: T1, CCK receptor (pancreas) (Rattus norvegicus, UniProt P30551); test: CCK receptor binding (Pancreas), inhibition of 125I-CCK binding; design: species or system rat (male Sprague-Dawley); details: 125I-CCK-33, 37° C., 30 minutes, read-out: IC^50 ^125 I-CCK Pancreas
T1 construct: The whole pancreas was dissected free of fat tissue and was homogenized; from tissue; host or cells: rat whole pancreas, membrane preparation
T1 sequence (P30551 1-444): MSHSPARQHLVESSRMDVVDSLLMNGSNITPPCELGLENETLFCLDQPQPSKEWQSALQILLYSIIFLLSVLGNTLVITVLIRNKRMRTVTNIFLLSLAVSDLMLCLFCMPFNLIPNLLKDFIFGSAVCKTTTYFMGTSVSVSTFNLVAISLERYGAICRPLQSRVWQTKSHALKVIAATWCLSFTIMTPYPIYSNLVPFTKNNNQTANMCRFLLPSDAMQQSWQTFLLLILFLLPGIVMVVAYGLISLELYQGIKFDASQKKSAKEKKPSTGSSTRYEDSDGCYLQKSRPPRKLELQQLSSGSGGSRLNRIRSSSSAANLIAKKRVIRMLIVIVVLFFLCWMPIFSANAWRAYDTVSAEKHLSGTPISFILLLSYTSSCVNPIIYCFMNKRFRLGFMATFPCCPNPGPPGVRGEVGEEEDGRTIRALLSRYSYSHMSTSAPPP
Description: 1. CCK Receptor Binding (Pancreas)
CCK-33 was radiolabeled with ^125 I-Bolton Hunter reagent (2000 Ci/mmole) as described by Sankara et al. (J. Biol. Chem. 254: 9349-9351, 1979). Receptor binding was performed according to Innis and Snyder (Proc. Natl. Acad. Sci. 77: 6917-6921, 1980) with the minor modification of adding the additional protease inhibitors, phenyl-methane sulfonyl fluoride and o-phenanthroline. The latter two compounds have no effect on the ^125 I-CCK receptor binding assay.
Male Sprague-Dawley rats (200-350g) were sacrificed by decapitation. The whole pancreas was dissected free of fat tissue and was homogenized in 20 volumes of ice-cold 50 mM, Tris HCl (pH 7.7 at 25° C.) with a Brinkmann Polytron PT 10. The homogenates were centrifuged at 48,000 g for 10 min. Pellets were resuspended in Tris Buffer, centrifuged as above and resuspended in 200 volumes of binding assay buffer (50 mM Tris HCl, pH 7.7 at 25° C., 5 mM dithiothrietol, 0.1 mM bacitracin, 1.2 mM phenylmethane sulfonyl fluoride and 0.5 mM o-phenanthroline). […] All assays were run in duplicate or triplicate. The reaction mixtures were incubated at 37° C. for 30 minutes and centrifuged in a Beckman Microfuge (4 minutes) immediately after adding 1 ml of ice-cold incubation buffer. The supernatant was aspirated and discarded, pellets were counted with a Beckman gamma 5000. For Scatchard analysis (Ann. N.Y. Acad. Sci. 51: 660, 1949), ^125 I-CCK-33 was progressively diluted with increasing concentrations of CCK-33.

[5] = biological target: T2, gastrin receptor (Cavia porcellus, UniProt H0VZC5); test: Gastrin receptor binding in guinea pig gastric glands; design: species or system guinea pig (male Hartley); details: read-out: IC^50 Gastrin
T2 construct: Guinea pig gastric mucosal glands were prepared by the procedure of Berglingh and Obrink; from tissue; host or cells: guinea pig gastric mucosal glands
Description: Gastrin antagonist activity of compounds of Formula I is determined using the following assay: […]
Gastrin Receptor Binding in Guinea Pig Gastric Glands Preparation of guinea pig gastric mucosal glands
Guinea pig gastric mucosal glands were prepared by the procedure of Berglingh and Obrink Acta Physiol. Scand. 96: 150 (1976) with a slight modification according to Praissman et al. C. J. Receptor Res. 3: (1983). Gastric mucosa from guinea pigs (300-500 g body weight, male Hartley) were washed thoroughly and minced with fine scissors in standard buffer consisting of the following: 130 mM NaCl, 12 mM NaHCO3, 3 mM NaH2 PO4, 3 mM K2 HPO4, 2 mM MgSO4, 1 mM CaCl2, 5 mM glucose and 4 mM L-glutamine, 25 mM HEPES at pH 7.4. The minced tissues were washed and then incubated in a 37° C. shaker bath for 40 minutes with the buffer containing 0.1% collagenase and 0.1% BSA and bubbled with 95% O2 and 5% CO2. The tissues were passed twice through a 5 ml glass syringe to liberate the gastric glands, and then filtered through 200 mesh nylon. The filtered glands were centrifuged at 270 g for 5 minutes and washed twice by resuspension and centrifugation.

[6] = biological target: T3, CCK receptor (brain) (Cavia porcellus, UniProt H0VZC5); test: CCK receptor binding (Brain), inhibition of 125I-CCK binding; design: species or system guinea pig (male Hartley); details: guinea pig cerebral cortex, 125I-CCK-33, 25° C., 2 hours; read-out: IC^50 ^125 I-CCK Brain
T3 construct: Cerebral cortex was dissected and used as a receptor source; from tissue; host or cells: guinea pig cerebral cortex, membrane preparation
Description: 2. CCK Receptor Binding (Brain)
CCK-33 was radiolabeled and the binding was performed according to the description for the pancreas method with modifications according to Saito et al., J. Neurochem. 37, 483-490, 1981.
Male Hartley guinea pigs (300-500 g) were sacrificed by decapitation and the brains were removed and placed in ice-cold 50 mM, Tris HCl plus 7.58 g/l Trizma-7.4 (pH 7.4 at 25° C.). Cerebral cortex was dissected and used as a receptor source. Each gram of fresh guinea pig brain tissue was homogenized in 10 ml of Tris Trizma buffer with a Brinkman polytron PT-10. The homogenates were centrifuged at 42,000 g for 15 min. […] All assays were run in duplicate or triplicate. The reaction mixtures were incubated at 25° C. for 2 hours and centrifuged in a Beckman Microfuge (4 minutes) immediately after adding 1 ml of ice-cold incubation buffer. The supernatant was aspirated and discarded, pellets were counted with a Beckman gamma 5000.

[7] = test system: stomach gastrin receptor; details: in words; cited from earlier work

T3 sequence (H0VZC5 entry or part of it): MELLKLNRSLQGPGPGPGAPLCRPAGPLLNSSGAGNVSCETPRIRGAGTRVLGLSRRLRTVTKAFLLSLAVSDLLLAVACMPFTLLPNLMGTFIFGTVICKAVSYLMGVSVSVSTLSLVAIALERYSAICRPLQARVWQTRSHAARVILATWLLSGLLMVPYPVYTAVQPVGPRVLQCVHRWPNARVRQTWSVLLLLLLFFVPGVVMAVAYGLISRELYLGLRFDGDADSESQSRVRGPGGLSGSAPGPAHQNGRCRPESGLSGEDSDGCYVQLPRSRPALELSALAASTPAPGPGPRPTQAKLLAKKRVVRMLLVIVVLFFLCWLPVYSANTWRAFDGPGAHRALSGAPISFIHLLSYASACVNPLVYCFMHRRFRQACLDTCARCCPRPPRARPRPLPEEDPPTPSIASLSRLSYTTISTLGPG
T2 sequence (H0VZC5 entry or part of it): as above

CSCC[C@H](NC(=O)[C@H](Cc1ccc(OS(=O)(=O)O)cc1)NC(=O)[C@@H](N)CC(=O)O)C(=O)NCC(=O)N[C@@H](Cc1c[nH]c2ccccc12)C(=O)N[C@@H](CCSC)C(=O)N[C@@H](CC(=O)O)C(=O)N[C@@H](Cc1ccccc1)C(N)=O [CCK-8s, H-Asp-Tyr(SO3 H)-Met-Gly-Trp-Met-Asp-Phe-NH2]
half-life [1]: less than 1 hour
affinity for CCK-A receptors [2]: high affinity
affinity for CCK-B receptors [3]: high affinity

Cc1cccc(NC(=O)NC2N=C(c3ccccc3)c3ccccc3N=C2NCCCN2CCCC2=O)c1 (stereo not shown) [Example 14, N-[3-Methylphenyl]-N'-[2-((3-(2-oxo)pyrrolidinyl)propyl)amino-5-phenyl-3H-1,4-benzodiazepin-3-yl]-urea]
IC50 [4]: 0.59 µM
IC50 [5]: 0.013 µM
IC50 [6]: 0.015 µM

CSCC[C@H](NC(=O)[C@@H](N)Cc1c[nH]c2ccccc12)C(=O)N[C@@H](CC(=O)O)C(=O)N[C@@H](Cc1ccccc1)C(N)=O [CCK-4]
potency at stomach gastrin receptor [7]: minimum fully potent CCK sequence
affinity for CCK-A receptors [2]: lower affinity
affinity for CCK-B receptors [3]: high affinity

CCN(CC)CCCNC1=Nc2ccccc2C(c2ccccc2)=NC1NC(=O)Nc1cccc(C)c1 (stereo not shown) [Example 13, N-[2-[((3-Diethylamino)propyl)amino]-5-phenyl-3H-1,4-benzodiazepin-3-yl]-N'-[3-methylphenyl]-urea]
IC50 [4]: 14 µM
IC50 [5]: 0.12 µM
IC50 [6]: 0.078 µM

gastrin: neuropeptide structurally related to cholecystokinin
affinity for CCK-A receptors [2]: lower affinity

Cc1cccc(NC(=O)NC2N=C(c3ccccc3)c3ccccc3N=C2NCC(=O)N2CCN(C)CC2)c1 (stereo not shown) [Example 12, 1-Methyl-4-[[(3-((((3-methylphenyl)amino)carbonyl)amino)-5-phenyl-3H-1,4-benzodiazepin-2-yl)amino]acetyl]-piperazine]
IC50 [4]: 1 µM
IC50 [5]: 0.18 µM
IC50 [6]: 0.124 µM

Cc1cccc(NC(=O)NC2N=C(c3ccccc3)c3ccccc3N=C2NCC(=O)N2CCCC2)c1 (stereo not shown) [Example 11, 1-[[(3-((3-Methylphenylaminocarbonyl)amino)-5-phenyl-3H-1,4-benzodiazepin-2-yl)amino]acetyl]-pyrrolidine]
IC50 [4]: 1.1 µM
IC50 [5]: 0.02 µM
IC50 [6]: 0.0059 µM

CSC1=Nc2ccccc2C(c2ccccc2F)=N[C@@H]1Cc1c[nH]c2ccccc12 [Example 2, 2-Methylthio-3(R)-(3'-indolyl)methyl-5-(2'-fluorophenyl)2H-1,4-benzodiazepine]
IC50 [4]: 17 µM

CSCC[C@H](NC(=O)[C@H](Cc1c[nH]c2ccccc12)NC(=O)CCNC(=O)OC(C)(C)C)C(=O)N[C@@H](CC(=O)O)C(=O)N[C@@H](Cc1ccccc1)C(N)=O [pentagastrin]
affinity for CCK-B receptors [3]: high affinity

CSCC[C@H](NC(=O)[C@H](Cc1ccc(O)cc1)NC(=O)[C@@H](N)CC(=O)O)C(=O)NCC(=O)N[C@@H](Cc1c[nH]c2ccccc12)C(=O)N[C@@H](CCSC)C(=O)N[C@@H](CC(=O)O)C(=O)N[C@@H](Cc1ccccc1)C(N)=O [CCK-8d]
affinity for CCK-A receptors [2]: lower affinity
